{"source": "the supplement of paper PMC10307832"}
{"compound": "CC1CC(=O)N(C2=CN=C(N=C2N1C3CCCC3)NC4=C(C=C(C=C4)C(=O)NC5CCN(CC5)C)OC)C [NPK76-II-72-1] + N=C(N)NC(=N)NCCc1ccccc1 [Phenformin] (partner 250 µM)", "experiment": "relative viability (nuclei count vs DMSO), 5 days (fraction); higher = more cells survive", "settings": "first compound 1 µM", "summary_of_the_method": "(§1)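 Relative viability is defined as nuclei in treated wells over nuclei in vehicle wells. Duplicate plates were run and medians reported. Lung cancer cell lines in 1536-well plates were dosed by pin tool one day after seeding, with one drug or with a fixed anchor-drug dose plus five library-drug doses (not always all listed) in √10 steps, and nuclei were counted after 5 days.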"}
{"cell line": "NCI-H3122", "relative viability": 0.38}
{"compound": "CC1CC(=O)N(C2=CN=C(N=C2N1C3CCCC3)NC4=C(C=C(C=C4)C(=O)NC5CCN(CC5)C)OC)C [NPK76-II-72-1] + COc1cccc2cc(-c3nc([C@H]4CC[C@H](C(=O)O)CC4)n4ncnc(N)c34)[nH]c12 [OSI-027] (partner 0.5 µM)", "experiment": "relative viability (nuclei count vs DMSO), 5 days (fraction); higher = more cells survive", "settings": "first compound 0.01 µM", "summary_of_the_method": "as §1"}
{"cell line": "NCI-H2405", "relative viability": 0.64}
{"cell line": "HOP-62", "relative viability": 0.784}
{"cell line": "HCC-44", "relative viability": 0.617}
{"cell line": "SW 900", "relative viability": 0.542}
{"cell line": "LU99A", "relative viability": 0.309}
{"cell line": "BEN", "relative viability": 0.285}
{"cell line": "HARA", "relative viability": 0.393}
{"cell line": "HCC-78", "relative viability": 0.511}
{"cell line": "NCI-H322M", "relative viability": 0.558}
{"cell line": "LCLC-97TM1", "relative viability": 0.479}
{"cell line": "NCI-H2009", "relative viability": 0.659}
{"cell line": "A-427", "relative viability": 0.497}
{"cell line": "NCI-H441", "relative viability": 0.596}
{"cell line": "NCI-H661", "relative viability": 0.667}
{"cell line": "NCI-H1734", "relative viability": 0.495}
{"cell line": "NCI-H460", "relative viability": 0.706}
{"cell line": "NCI-H2347", "relative viability": 0.407}
{"cell line": "SK-LU-1", "relative viability": 0.321}
{"cell line": "NCI-H1395", "relative viability": 0.633}
{"cell line": "201T", "relative viability": 0.65}
{"cell line": "NCI-H1915", "relative viability": 0.616}
{"cell line": "HCC-827", "relative viability": 0.75}
{"cell line": "LXF-289", "relative viability": 0.704}
{"cell line": "NCI-H23", "relative viability": 0.649}
{"cell line": "NCI-H647", "relative viability": 0.618}
{"cell line": "CAL-12T", "relative viability": 0.626}
{"cell line": "NCI-H1651", "relative viability": 0.676}
{"cell line": "EPLC-272H", "relative viability": 0.307}
{"cell line": "NCI-H2228", "relative viability": 0.427}
{"cell line": "NCI-H1792", "relative viability": 0.701}
{"cell line": "NCI-H1355", "relative viability": 0.332}
{"cell line": "NCI-H3122", "relative viability": 0.856}
{"compound": "CC1CC(=O)N(C2=CN=C(N=C2N1C3CCCC3)NC4=C(C=C(C=C4)C(=O)NC5CCN(CC5)C)OC)C [NPK76-II-72-1] + COc1cccc2cc(-c3nc([C@H]4CC[C@H](C(=O)O)CC4)n4ncnc(N)c34)[nH]c12 [OSI-027] (partner 0.5 µM)", "experiment": "relative viability (nuclei count vs DMSO), 5 days (fraction); higher = more cells survive", "settings": "first compound 0.03162 µM", "summary_of_the_method": "as §1"}
{"cell line": "NCI-H2405", "relative viability": 0.672}
{"cell line": "HOP-62", "relative viability": 0.919}
{"cell line": "HCC-44", "relative viability": 0.702}
{"cell line": "SW 900", "relative viability": 0.475}
{"cell line": "LU99A", "relative viability": 0.285}
{"cell line": "BEN", "relative viability": 0.292}
{"cell line": "HARA", "relative viability": 0.424}
{"cell line": "HCC-78", "relative viability": 0.467}
{"cell line": "NCI-H322M", "relative viability": 0.593}
{"cell line": "LCLC-97TM1", "relative viability": 0.67}
{"cell line": "NCI-H2009", "relative viability": 0.671}
{"cell line": "A-427", "relative viability": 0.526}
{"cell line": "NCI-H441", "relative viability": 0.73}
{"cell line": "NCI-H661", "relative viability": 0.772}
{"cell line": "NCI-H1734", "relative viability": 0.625}
{"cell line": "NCI-H460", "relative viability": 0.79}
{"cell line": "NCI-H2347", "relative viability": 0.502}
{"cell line": "SK-LU-1", "relative viability": 0.355}
{"cell line": "NCI-H1395", "relative viability": 0.617}
{"cell line": "201T", "relative viability": 0.677}
{"cell line": "NCI-H1915", "relative viability": 0.708}
{"cell line": "HCC-827", "relative viability": 0.788}
{"cell line": "LXF-289", "relative viability": 0.849}
{"cell line": "NCI-H23", "relative viability": 0.649}
{"cell line": "NCI-H647", "relative viability": 0.626}
{"cell line": "CAL-12T", "relative viability": 0.787}
{"cell line": "NCI-H1651", "relative viability": 0.743}
{"cell line": "NCI-H2228", "relative viability": 0.615}
{"cell line": "NCI-H1355", "relative viability": 0.421}
{"cell line": "NCI-H3122", "relative viability": 0.914}
{"compound": "CC1CC(=O)N(C2=CN=C(N=C2N1C3CCCC3)NC4=C(C=C(C=C4)C(=O)NC5CCN(CC5)C)OC)C [NPK76-II-72-1] + COc1cccc2cc(-c3nc([C@H]4CC[C@H](C(=O)O)CC4)n4ncnc(N)c34)[nH]c12 [OSI-027] (partner 0.5 µM)", "experiment": "relative viability (nuclei count vs DMSO), 5 days (fraction); higher = more cells survive", "settings": "first compound 0.1 µM", "summary_of_the_method": "as §1"}
{"cell line": "NCI-H2405", "relative viability": 0.633}
{"cell line": "HOP-62", "relative viability": 0.917}
{"cell line": "HCC-44", "relative viability": 0.337}
{"cell line": "SW 900", "relative viability": 0.513}
{"cell line": "LU99A", "relative viability": 0.241}
{"cell line": "BEN", "relative viability": 0.273}
{"cell line": "HARA", "relative viability": 0.545}
{"cell line": "HCC-78", "relative viability": 0.356}
{"cell line": "NCI-H322M", "relative viability": 0.534}
{"cell line": "LCLC-97TM1", "relative viability": 0.407}
{"cell line": "NCI-H2009", "relative viability": 0.596}
{"cell line": "A-427", "relative viability": 0.452}
{"cell line": "NCI-H441", "relative viability": 0.561}
{"cell line": "NCI-H661", "relative viability": 0.746}
{"cell line": "NCI-H1734", "relative viability": 0.64}
{"cell line": "NCI-H460", "relative viability": 0.75}
{"cell line": "NCI-H2347", "relative viability": 0.466}
{"cell line": "SK-LU-1", "relative viability": 0.368}
{"cell line": "NCI-H1395", "relative viability": 0.677}
{"cell line": "201T", "relative viability": 0.703}
{"cell line": "NCI-H1915", "relative viability": 0.659}
{"cell line": "HCC-827", "relative viability": 0.835}
{"cell line": "LXF-289", "relative viability": 0.684}
{"cell line": "NCI-H23", "relative viability": 0.568}
{"cell line": "NCI-H647", "relative viability": 0.526}
{"cell line": "CAL-12T", "relative viability": 0.601}
{"cell line": "NCI-H1651", "relative viability": 0.677}
{"cell line": "EPLC-272H", "relative viability": 0.287}
{"cell line": "NCI-H2228", "relative viability": 0.547}
{"cell line": "NCI-H1792", "relative viability": 0.734}
{"cell line": "NCI-H1355", "relative viability": 0.397}
{"cell line": "NCI-H3122", "relative viability": 0.929}
{"compound": "CC1CC(=O)N(C2=CN=C(N=C2N1C3CCCC3)NC4=C(C=C(C=C4)C(=O)NC5CCN(CC5)C)OC)C [NPK76-II-72-1] + COc1cccc2cc(-c3nc([C@H]4CC[C@H](C(=O)O)CC4)n4ncnc(N)c34)[nH]c12 [OSI-027] (partner 0.5 µM)", "experiment": "relative viability (nuclei count vs DMSO), 5 days (fraction); higher = more cells survive", "settings": "first compound 0.3162 µM", "summary_of_the_method": "as §1"}
{"cell line": "NCI-H2405", "relative viability": 0.627}
{"cell line": "HOP-62", "relative viability": 0.722}
{"cell line": "HCC-44", "relative viability": 0.599}
{"cell line": "SW 900", "relative viability": 0.601}
{"cell line": "LU99A", "relative viability": 0.278}
{"cell line": "BEN", "relative viability": 0.295}
{"cell line": "HARA", "relative viability": 0.345}
{"cell line": "HCC-78", "relative viability": 0.496}
{"cell line": "NCI-H322M", "relative viability": 0.56}
{"cell line": "LCLC-97TM1", "relative viability": 0.45}
{"cell line": "NCI-H2009", "relative viability": 0.547}
{"cell line": "A-427", "relative viability": 0.376}
{"cell line": "NCI-H441", "relative viability": 0.579}
{"cell line": "NCI-H661", "relative viability": 0.588}
{"cell line": "NCI-H1734", "relative viability": 0.589}
{"cell line": "NCI-H460", "relative viability": 0.628}
{"cell line": "NCI-H2347", "relative viability": 0.366}
{"cell line": "SK-LU-1", "relative viability": 0.361}
{"cell line": "NCI-H1395", "relative viability": 0.62}
{"cell line": "201T", "relative viability": 0.673}
{"cell line": "NCI-H1915", "relative viability": 0.584}
{"cell line": "HCC-827", "relative viability": 0.597}
{"cell line": "LXF-289", "relative viability": 0.763}
{"cell line": "NCI-H23", "relative viability": 0.585}
{"cell line": "NCI-H647", "relative viability": 0.578}
{"cell line": "CAL-12T", "relative viability": 0.683}
{"cell line": "NCI-H1651", "relative viability": 0.652}
{"cell line": "EPLC-272H", "relative viability": 0.235}
{"cell line": "NCI-H2228", "relative viability": 0.55}
{"cell line": "NCI-H1792", "relative viability": 0.753}
{"cell line": "NCI-H1355", "relative viability": 0.384}
{"cell line": "NCI-H3122", "relative viability": 0.911}
{"compound": "CC1CC(=O)N(C2=CN=C(N=C2N1C3CCCC3)NC4=C(C=C(C=C4)C(=O)NC5CCN(CC5)C)OC)C [NPK76-II-72-1] + COc1cccc2cc(-c3nc([C@H]4CC[C@H](C(=O)O)CC4)n4ncnc(N)c34)[nH]c12 [OSI-027] (partner 0.5 µM)", "experiment": "relative viability (nuclei count vs DMSO), 5 days (fraction); higher = more cells survive", "settings": "first compound 1 µM", "summary_of_the_method": "as §1"}
{"cell line": "NCI-H2405", "relative viability": 0.67}
{"cell line": "HOP-62", "relative viability": 0.978}
{"cell line": "HCC-44", "relative viability": 0.65}
{"cell line": "SW 900", "relative viability": 0.713}
{"cell line": "LU99A", "relative viability": 0.299}
{"cell line": "BEN", "relative viability": 0.318}
{"cell line": "HARA", "relative viability": 0.67}
{"cell line": "HCC-78", "relative viability": 0.404}
{"cell line": "NCI-H322M", "relative viability": 0.672}
{"cell line": "LCLC-97TM1", "relative viability": 0.577}
{"cell line": "NCI-H2009", "relative viability": 0.778}
{"cell line": "A-427", "relative viability": 0.434}
{"cell line": "NCI-H441", "relative viability": 0.788}
{"cell line": "NCI-H661", "relative viability": 0.742}
{"cell line": "NCI-H1734", "relative viability": 0.628}
{"cell line": "NCI-H460", "relative viability": 0.775}
{"cell line": "NCI-H2347", "relative viability": 0.274}
{"cell line": "SK-LU-1", "relative viability": 0.406}
{"cell line": "NCI-H1395", "relative viability": 0.695}
{"cell line": "201T", "relative viability": 0.474}
{"cell line": "NCI-H1915", "relative viability": 0.654}
{"cell line": "HCC-827", "relative viability": 0.801}
{"cell line": "LXF-289", "relative viability": 0.783}
{"cell line": "NCI-H23", "relative viability": 0.71}
{"cell line": "NCI-H647", "relative viability": 0.627}
{"cell line": "CAL-12T", "relative viability": 0.823}
{"cell line": "NCI-H1651", "relative viability": 0.799}
{"cell line": "EPLC-272H", "relative viability": 0.305}
{"cell line": "NCI-H2228", "relative viability": 0.724}
{"cell line": "NCI-H1792", "relative viability": 0.802}
{"cell line": "NCI-H1355", "relative viability": 0.489}
{"cell line": "NCI-H3122", "relative viability": 1.02}
